Results published in US9290473B2, “Inhibitors of phosphatidylinositol-3-kinase (PI3) and inducers of nitric oxide (NO)” (COUCIL OF SCIENTIFIC & INDUSTRIAL RESEARCH, priority 2009, dated 2016).

Columns and labels:
[1] = test system: breast cancer cell line MCF-7; assay: Cell viability, trypan blue exclusion, MCF-7; format: cell-based, human; details: 72 hours incubation
Source text: (§1) Following cancer cell lines were used: chronic myeloid leukemia cell lines K562, KU812; acute myeloid leukemia cell lines HL60, U937; T-lymphoblastic leukemia cell line Molt-4; prostate cancer cell line PC-3; breast cancer cell line MCF-7; pancreatic cancer cell line MIA PaCa-2. These cancer cell lines were maintained in tissue culture in standard growth medium containing 10% heat-inactivated fetal bovine serum (FBS). Normal human peripheral blood mononuclear cells (PBMC) were separated from whole blood by Ficoll/Hypaque density gradient centrifugation. Peripheral blood samples were collected from normal donors with due approval from the Human Ethics Committee of Indian Institute of Chemical Biology, Kolkata, India, and all experiments with human blood were conducted under an approved institutional Human Ethics committee protocol. Informed consent was provided according to the Declaration of Helsinki. Cancer cell lines and PBMC (5×10^3) in triplicate were incubated in 0.2 mL of standard growth medium containing 10% FBS with varying concentrations of test compounds of the present invention. After 72 hours of incubation, cells were collected by centrifugation (at 1000 g for 5 minutes) and cell-viability was determined by the trypan blue exclusion assay. At least 200 cells were examined in each sample. Because of monolayer culture, treated and untreated PC-3, MCF-7 and MIA PaCa-2 cells were detached from the wells by treatment with Cell Dissociation Solution (Sigma Chemical, St. Louis, Mo.) before counting. Data are represented as IC50 (minimum concentration required to inhibit the viability by 50%) in Table 5.

[2] = test system: prostate cancer cell line PC-3; assay: Cell viability, trypan blue exclusion, PC-3; format: cell-based, human; details: 72 hours incubation
Source text: as §1

[3] = test system: endothelial nitric oxide synthase (eNOS); assay: NOS isoform siRNA transfection of MIA PaCa 2 cells, apoptosis and eNOS expression; format: cell-based, human; details: siRNA 48 hr, then 30 μM for 24 hr
Method: MIA PaCa 2 cells were transfected with control siRNA, nNOS siRNA, iNOS siRNA or eNOS siRNA (purchased from Santa Cruz Biotechnology) for 48 hr. Transfections were carried out following the manufacturer's instructions. The transfection reagent used for siRNA transfection was purchased from Santa Cruz. Cells were then treated with vehicle control or Compound 1 (30 μM) for 24 hr. Apoptosis was analyzed by flow cytometry. To confirm that transfectin with siRNAs attenuate the protein expression of respective NOS isoforms, Western blot was performed with whole cell lysates.

[4] = test system: MCF-7 xenografts; assay: Human breast adenocarcinoma (MCF-7) xenograft in nude mice; format: in vivo; details: 100 mg/kg body weight oral twice a day for 10 days
Method: MCF-7 cells were suspended to 5×10^7 cells/ml in Matrigel (BD Biosciences; 1 volume of cells with 1 volume of cold Matrigel). Nude female mice of 6 to 7 weeks of age (National Institute of Nutrition, Hyderabad, India) were injected with 0.2 ml of this cell suspension. Animals were left untreated until MCF-7 xenografts reached 200-300 mm^3.
Compound 1 (100 mg/kg body weight) or vehicle control were administered via oral route twice a day for 10 days (5 mice per group).

[5] = test system: T-lymphoblastic leukemia cell line Molt-4; assay: Cell viability, trypan blue exclusion, Molt-4; format: cell-based, human; details: 72 hours incubation
Source text: as §1

[6] = test system: acute myeloid leukemia cell line U937; assay: Cell viability, trypan blue exclusion, U937; format: cell-based; details: Homo sapiens, U-937, 72 hours incubation
Source text: as §1

C=CCc1ccc(O)c(O)c1 [Compound 1, 4-allyl-benzene-1,2-diol] showed an IC50 [1] of 35 µM, an IC50 ([1]; Homo sapiens, MCF7, 72 h) of 25 to 70 µM and an IC50 [2] of 35 µM. For the same compound, the IC50 ([2]; Homo sapiens, 72 h) was 25 to 70 µM, the “NOS isoform involved in induced nitric oxide production and cell death” value [3] was “Endothelial nitric oxide synthase (eNOS) is responsible” and the “In vivo efficacy in MCF-7 xenografts” value [4] was “further confirmed”. The IC50 [5] was 30 µM, the IC50 ([5]; Homo sapiens, MOLT-4, 72 h) was 15 to 50 µM and the IC50 [6] was 25 µM.
